In ChEMBL document CHEMBL1201862, “PubChem BioAssay data set” (2004):
Entries after “also recorded” stand apart in the source; their conditions may differ. Activity calls are given as the source filed them.

Legend:
Cytochrome P450 2D6 = Cytochrome P450 2D6 (Homo sapiens, UniProt P10635);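 also: CYP2D6 member of a cytochrome P450 panel assay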
Cytochrome P450 1A2 = biological target: T1, Cytochrome P450 1A2 (Homo sapiens, UniProt P05177);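 also: PubChem cytochrome P450 panel assay, CYP1A2 panel member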
T1 sequence (P05177 whole entry): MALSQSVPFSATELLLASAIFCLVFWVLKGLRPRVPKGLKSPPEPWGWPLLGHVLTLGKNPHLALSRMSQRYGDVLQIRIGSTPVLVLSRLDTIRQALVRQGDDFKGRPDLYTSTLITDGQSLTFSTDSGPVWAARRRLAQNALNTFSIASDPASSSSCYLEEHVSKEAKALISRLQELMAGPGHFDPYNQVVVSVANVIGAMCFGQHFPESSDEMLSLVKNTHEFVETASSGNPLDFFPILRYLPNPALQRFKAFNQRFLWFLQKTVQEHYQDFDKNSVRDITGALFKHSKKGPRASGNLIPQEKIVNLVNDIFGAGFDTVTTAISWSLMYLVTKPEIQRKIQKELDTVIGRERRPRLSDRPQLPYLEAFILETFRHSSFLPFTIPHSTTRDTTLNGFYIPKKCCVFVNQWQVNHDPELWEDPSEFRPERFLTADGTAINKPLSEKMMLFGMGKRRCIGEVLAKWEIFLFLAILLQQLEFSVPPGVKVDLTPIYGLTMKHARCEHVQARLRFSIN

Cytochrome P450 2C19 = Cytochrome P450 2C19 (Homo sapiens, UniProt P33261); experiment: Cytochrome panel assay with activity outcomes. Panel member name: p450-cyp2c19 Compounds with AC50 equal or less than 10 uM are considered active; type: functional
Cytochrome P450 2C19, sequence (P33261 whole entry): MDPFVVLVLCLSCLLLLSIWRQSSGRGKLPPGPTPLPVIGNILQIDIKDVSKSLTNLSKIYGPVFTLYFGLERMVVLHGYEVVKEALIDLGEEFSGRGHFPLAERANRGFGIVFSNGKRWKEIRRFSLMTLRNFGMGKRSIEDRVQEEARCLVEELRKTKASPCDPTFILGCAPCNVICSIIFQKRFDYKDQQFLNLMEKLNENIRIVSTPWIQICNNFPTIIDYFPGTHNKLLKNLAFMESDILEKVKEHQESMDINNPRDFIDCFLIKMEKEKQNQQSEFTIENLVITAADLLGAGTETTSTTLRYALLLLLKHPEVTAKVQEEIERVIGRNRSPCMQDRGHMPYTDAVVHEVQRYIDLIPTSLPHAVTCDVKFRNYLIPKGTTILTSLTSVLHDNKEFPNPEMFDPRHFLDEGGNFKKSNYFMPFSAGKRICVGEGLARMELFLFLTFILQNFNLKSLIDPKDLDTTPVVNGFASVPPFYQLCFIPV

[1] = inhibitors of cytokine-induced nitrite release, dose response, cell-based, Griess absorbance, INS-1E, dry powder, set 3 (AID 488870); type: functional; conditions: Rattus norvegicus
[2] = biological target: Intestinal-type alkaline phosphatase (Homo sapiens, UniProt P09923); experiment: inhibition of human intestinal alkaline phosphatase – biochemical, dose response (AID 488876); type: functional
Intestinal-type alkaline phosphatase (Homo sapiens, UniProt P09923), sequence (P09923 whole entry): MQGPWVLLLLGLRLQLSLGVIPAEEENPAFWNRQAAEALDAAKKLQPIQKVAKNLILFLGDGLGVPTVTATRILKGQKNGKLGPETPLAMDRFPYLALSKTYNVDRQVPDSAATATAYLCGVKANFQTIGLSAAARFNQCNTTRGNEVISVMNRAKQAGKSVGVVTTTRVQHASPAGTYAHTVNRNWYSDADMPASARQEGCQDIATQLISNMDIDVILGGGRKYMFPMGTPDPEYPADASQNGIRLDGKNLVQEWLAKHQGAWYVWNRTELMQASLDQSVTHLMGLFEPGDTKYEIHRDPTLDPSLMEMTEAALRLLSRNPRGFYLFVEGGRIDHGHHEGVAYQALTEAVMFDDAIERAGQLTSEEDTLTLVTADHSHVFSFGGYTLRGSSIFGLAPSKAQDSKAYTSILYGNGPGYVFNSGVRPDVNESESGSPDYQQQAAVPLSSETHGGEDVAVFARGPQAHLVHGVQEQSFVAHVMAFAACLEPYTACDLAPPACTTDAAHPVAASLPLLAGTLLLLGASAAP

[3] = THP-1 cell cytotoxicity, dose response, cytotoxicity control for Vif-APOBEC3G degradation inhibitor project, THP-1 cells (AID 1117359); type: functional; conditions: Human immunodeficiency virus 1, THP-1
[4] = cytotoxicity in MIN6 insulinoma cells, dose response, cytotoxicity control, cell-based, mouse insulinoma (AID 2122); type: functional;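 also: confirmatory high-throughput counterscreen run to flag cytotoxic compounds; mouse MIN-6 beta cells carrying an insulin promoter eGFP reporter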
[5] = biological target: T2, Alkaline phosphatase, tissue-nonspecific isozyme (Homo sapiens, UniProt P05186); experiment: TNAP enzyme inhibition by screening hits, dose response, selectivity assay for mouse IAP inhibitor project, biochemical, human TNAP, uHTS hits (AID 488906); type: functional
T2 sequence (P05186 whole entry): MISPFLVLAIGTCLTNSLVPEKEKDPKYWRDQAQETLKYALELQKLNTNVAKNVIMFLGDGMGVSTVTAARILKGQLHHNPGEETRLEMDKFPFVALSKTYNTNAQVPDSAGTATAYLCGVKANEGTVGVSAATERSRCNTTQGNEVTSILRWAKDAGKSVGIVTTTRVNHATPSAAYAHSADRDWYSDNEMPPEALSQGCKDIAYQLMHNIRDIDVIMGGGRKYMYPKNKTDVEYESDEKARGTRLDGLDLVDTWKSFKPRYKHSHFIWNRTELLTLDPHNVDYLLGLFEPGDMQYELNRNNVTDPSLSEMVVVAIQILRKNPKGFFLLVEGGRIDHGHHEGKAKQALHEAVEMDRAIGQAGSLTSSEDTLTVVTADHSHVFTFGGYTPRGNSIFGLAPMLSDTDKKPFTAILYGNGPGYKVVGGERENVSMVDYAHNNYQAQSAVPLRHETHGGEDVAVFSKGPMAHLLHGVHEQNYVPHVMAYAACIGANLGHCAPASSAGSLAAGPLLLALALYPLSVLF

[6] = growth suppression of beta-catenin-knockout colon cells, dose response, cell-based, HCT116, human colon tumor (AID 1045); type: functional;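 also: HCT116 colon tumor cells with beta catenin knocked out; cells exposed to compound for 60 hours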
[7] = inhibitors of Vif binding to APOBEC3G peptide, primary screen, biochemical, TR-FRET, GST-Vif 1-94, biotin-A3G peptide, dose response retest (AID 1117319); type: functional;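 also: TR-FRET signal of purified GST-Vif binding a biotinylated A3G peptide; inhibitors lower the FRET signal by blocking Vif and A3G binding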
[8] = Vero cell cytotoxicity, dose response, cytotoxicity control for Vif-APOBEC3G degradation inhibitor project, Vero cells (AID 1117358); type: functional; conditions: Human immunodeficiency virus 1, Vero
[9] = insulin promoter down-regulators in MIN6 cells, imaging, high-content screening, mouse beta cells (AID 1628); type: functional
[10] = biological target: T3, Histone-lysine N-methyltransferase NSD2 (Homo sapiens, UniProt O96028); type: biochemical
T3 sequence (O96028 whole entry): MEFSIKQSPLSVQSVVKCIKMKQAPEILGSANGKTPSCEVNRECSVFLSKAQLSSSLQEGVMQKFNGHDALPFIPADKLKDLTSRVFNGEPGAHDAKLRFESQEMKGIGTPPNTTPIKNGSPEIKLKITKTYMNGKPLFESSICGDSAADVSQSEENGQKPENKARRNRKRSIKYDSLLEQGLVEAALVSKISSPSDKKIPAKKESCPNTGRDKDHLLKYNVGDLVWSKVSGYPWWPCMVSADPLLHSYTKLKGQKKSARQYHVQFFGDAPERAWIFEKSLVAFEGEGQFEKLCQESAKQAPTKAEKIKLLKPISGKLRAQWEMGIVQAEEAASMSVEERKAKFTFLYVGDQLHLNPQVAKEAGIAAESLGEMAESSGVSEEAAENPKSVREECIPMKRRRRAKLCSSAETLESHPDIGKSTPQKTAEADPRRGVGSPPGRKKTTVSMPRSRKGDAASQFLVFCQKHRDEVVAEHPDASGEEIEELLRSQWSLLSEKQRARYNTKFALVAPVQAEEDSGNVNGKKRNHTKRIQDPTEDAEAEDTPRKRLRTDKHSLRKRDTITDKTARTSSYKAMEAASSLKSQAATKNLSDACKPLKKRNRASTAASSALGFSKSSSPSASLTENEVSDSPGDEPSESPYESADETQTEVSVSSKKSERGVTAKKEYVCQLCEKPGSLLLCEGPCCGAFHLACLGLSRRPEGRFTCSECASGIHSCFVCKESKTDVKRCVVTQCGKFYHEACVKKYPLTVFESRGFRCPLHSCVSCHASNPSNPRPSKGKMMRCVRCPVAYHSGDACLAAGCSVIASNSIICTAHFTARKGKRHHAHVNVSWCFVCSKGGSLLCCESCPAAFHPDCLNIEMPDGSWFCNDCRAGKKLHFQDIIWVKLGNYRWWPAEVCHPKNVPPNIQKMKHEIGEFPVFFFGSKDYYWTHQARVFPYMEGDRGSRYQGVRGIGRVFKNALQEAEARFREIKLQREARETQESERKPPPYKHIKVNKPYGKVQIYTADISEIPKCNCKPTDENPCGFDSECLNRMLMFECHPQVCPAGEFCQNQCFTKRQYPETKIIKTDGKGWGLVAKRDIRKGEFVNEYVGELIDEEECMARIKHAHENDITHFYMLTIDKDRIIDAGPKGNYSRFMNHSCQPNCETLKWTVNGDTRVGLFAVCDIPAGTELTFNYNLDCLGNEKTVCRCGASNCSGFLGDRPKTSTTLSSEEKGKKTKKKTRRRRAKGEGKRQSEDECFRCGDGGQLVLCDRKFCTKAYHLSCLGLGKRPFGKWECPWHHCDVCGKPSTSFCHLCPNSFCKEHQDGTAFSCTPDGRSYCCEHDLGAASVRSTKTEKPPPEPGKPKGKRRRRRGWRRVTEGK

[11] = biological target: Intestinal-type alkaline phosphatase (Mus musculus, UniProt P24822); experiment: PubChem AID 488785; type: functional
Intestinal-type alkaline phosphatase (Mus musculus, UniProt P24822), sequence (P24822 whole entry): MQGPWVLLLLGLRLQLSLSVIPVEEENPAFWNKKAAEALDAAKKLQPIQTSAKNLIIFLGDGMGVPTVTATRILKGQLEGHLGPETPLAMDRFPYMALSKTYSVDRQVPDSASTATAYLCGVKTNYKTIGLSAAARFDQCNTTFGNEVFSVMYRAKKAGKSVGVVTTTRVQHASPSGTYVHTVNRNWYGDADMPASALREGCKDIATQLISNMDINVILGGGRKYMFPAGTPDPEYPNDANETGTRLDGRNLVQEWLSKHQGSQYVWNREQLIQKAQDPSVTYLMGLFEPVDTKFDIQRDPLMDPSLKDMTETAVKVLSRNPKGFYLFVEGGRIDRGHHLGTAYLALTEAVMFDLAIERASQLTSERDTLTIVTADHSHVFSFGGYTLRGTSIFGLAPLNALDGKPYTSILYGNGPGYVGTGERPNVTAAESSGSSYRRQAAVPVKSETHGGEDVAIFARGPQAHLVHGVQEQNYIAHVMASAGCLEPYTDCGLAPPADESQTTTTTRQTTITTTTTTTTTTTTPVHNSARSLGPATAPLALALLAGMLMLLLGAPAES

[12] = growth suppression of PTEN-null colon cells, dose response, cell-based, HCT116 PTEN knockout (AID 1047); type: functional;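 also: HCT116 colon tumor cells with PTEN knocked out; cells exposed to compound for 60 hours before readout; potency for loss of cell viability measured by luminescence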
[13] = biological target: 1-phosphatidylinositol 4,5-bisphosphate phosphodiesterase beta-3 (Homo sapiens, UniProt Q01970); experiment: Fluorescence-based biochemical high throughput dose response assay to identify inhibitors of phospholipase C isozymes (PLC-B3).
1-phosphatidylinositol 4,5-bisphosphate phosphodiesterase beta-3, sequence (Q01970 whole entry): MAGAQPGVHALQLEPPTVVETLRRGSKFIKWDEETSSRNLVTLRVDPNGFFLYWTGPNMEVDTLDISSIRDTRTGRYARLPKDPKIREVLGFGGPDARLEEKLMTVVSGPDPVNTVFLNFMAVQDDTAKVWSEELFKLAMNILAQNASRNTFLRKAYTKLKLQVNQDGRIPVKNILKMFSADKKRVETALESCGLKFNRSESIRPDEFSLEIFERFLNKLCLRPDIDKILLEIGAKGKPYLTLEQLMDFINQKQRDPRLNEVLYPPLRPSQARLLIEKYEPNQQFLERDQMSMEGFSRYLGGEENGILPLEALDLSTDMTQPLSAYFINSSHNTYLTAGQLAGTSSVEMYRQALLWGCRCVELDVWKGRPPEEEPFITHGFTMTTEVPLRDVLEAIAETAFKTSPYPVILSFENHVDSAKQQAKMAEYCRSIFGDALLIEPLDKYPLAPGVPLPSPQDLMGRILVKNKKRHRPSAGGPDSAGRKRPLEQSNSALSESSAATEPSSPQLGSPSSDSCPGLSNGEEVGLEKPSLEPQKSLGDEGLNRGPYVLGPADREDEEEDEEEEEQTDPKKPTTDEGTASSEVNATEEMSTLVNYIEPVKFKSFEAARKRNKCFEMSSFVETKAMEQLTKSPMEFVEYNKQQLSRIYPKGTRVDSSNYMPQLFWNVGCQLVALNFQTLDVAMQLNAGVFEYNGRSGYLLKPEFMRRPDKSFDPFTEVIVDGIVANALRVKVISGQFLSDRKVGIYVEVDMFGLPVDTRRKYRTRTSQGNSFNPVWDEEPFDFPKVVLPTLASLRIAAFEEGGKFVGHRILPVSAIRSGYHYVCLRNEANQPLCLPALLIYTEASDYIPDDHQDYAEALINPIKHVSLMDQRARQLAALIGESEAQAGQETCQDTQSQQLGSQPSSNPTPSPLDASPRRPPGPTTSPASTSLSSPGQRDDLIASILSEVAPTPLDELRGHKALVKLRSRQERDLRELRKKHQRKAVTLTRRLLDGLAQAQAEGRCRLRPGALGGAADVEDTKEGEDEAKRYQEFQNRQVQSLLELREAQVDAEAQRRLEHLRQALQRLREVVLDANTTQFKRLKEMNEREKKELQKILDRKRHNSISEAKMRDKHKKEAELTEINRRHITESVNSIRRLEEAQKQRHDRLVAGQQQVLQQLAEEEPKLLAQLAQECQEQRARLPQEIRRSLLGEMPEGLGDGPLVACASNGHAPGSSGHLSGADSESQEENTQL

[14] = biological target: 1-phosphatidylinositol 4,5-bisphosphate phosphodiesterase gamma-1 (Homo sapiens, UniProt P19174); experiment: Counterscreen for inhibitors of phospholipase C isozymes (PLC-B3): Fluorescence-based biochemical high throughput dose response assay to identify inhibitors of phospholipase C isozymes (PLC-gamma1).
1-phosphatidylinositol 4,5-bisphosphate phosphodiesterase gamma-1, sequence (P19174 whole entry): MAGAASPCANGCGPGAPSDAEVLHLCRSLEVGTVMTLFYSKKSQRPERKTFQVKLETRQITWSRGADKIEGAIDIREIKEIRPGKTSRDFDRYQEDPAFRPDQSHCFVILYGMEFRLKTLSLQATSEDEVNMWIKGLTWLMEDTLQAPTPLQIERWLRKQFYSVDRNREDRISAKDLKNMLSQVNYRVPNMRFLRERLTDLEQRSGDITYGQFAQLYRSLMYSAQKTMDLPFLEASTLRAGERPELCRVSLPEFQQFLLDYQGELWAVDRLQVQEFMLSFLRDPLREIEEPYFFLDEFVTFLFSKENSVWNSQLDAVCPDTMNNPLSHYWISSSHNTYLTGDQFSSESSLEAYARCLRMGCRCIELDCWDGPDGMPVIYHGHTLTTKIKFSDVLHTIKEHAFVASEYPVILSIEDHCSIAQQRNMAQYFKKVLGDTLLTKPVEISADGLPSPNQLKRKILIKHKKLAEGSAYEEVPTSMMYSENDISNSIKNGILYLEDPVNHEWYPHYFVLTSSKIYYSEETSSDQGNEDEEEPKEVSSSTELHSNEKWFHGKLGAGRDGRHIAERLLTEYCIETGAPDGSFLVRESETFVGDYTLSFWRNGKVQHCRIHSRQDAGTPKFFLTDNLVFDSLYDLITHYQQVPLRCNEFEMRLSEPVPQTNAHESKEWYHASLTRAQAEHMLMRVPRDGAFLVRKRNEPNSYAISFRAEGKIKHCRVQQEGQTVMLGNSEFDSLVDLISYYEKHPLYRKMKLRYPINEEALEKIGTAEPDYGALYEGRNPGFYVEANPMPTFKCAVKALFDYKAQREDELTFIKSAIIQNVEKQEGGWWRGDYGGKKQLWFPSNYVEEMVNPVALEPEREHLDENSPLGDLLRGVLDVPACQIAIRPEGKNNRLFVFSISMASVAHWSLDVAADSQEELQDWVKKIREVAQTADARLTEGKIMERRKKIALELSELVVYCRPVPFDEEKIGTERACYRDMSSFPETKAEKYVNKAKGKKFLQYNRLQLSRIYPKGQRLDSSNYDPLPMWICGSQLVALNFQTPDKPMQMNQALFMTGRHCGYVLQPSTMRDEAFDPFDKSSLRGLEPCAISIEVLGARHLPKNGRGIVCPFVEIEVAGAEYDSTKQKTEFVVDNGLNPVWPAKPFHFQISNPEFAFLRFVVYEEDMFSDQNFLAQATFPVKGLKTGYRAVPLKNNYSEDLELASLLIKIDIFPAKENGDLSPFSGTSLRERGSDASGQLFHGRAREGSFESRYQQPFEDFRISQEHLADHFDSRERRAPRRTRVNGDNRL

[15] = biological target: T4, Small ubiquitin-related modifier 1 (Homo sapiens, UniProt P63165); experiment: inhibitors of SUMO1 partner interactions, dose response, biochemical, FRET (AID 624383); type: functional; conditions: read-out: IC50_Mean
T4 sequence (P63165 whole entry): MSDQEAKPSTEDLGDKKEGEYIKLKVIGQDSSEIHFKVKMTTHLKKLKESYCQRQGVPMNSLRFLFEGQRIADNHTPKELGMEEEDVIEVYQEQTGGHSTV

[16] = biological target: NAD-dependent protein deacylase sirtuin-5, mitochondrial (Homo sapiens, UniProt Q9NXA8); experiment: SIRT5 desuccinylase inhibitors, dose response, biochemical, fluorescence imaging, cherry-pick, set 5 (AID 720591);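 also: desuccinylation of succinyl peptide AMC substrate read as fluorescence after trypsin release; potency of inhibitors that lower fluorescence and may act on trypsin instead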
NAD-dependent protein deacylase sirtuin-5, mitochondrial, sequence (Q9NXA8 whole entry): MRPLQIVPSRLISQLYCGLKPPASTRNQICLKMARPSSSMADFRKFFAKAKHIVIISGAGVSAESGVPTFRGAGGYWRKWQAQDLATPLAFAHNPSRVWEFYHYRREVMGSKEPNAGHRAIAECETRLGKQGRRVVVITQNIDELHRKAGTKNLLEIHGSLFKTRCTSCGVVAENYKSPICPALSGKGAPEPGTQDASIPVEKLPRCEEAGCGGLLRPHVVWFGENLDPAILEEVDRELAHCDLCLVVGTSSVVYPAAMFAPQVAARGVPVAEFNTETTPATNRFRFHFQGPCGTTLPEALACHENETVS

[17] = biological target: T4, Small ubiquitin-related modifier 1; experiment: inhibitors of SUMO1 peptide binding, dose response, biochemical, fluorescence polarization, uHTS hits (AID 624382); type: functional; conditions: read-out: IC50_Mean
[18] = biological target: T5, Apoptotic protease-activating factor 1 (Homo sapiens, UniProt O14727); experiment: activation of Apaf-1 mediated apoptosis – fluorescent, uHTS hits, dose response (AID 588554); type: functional
T5 sequence (O14727 whole entry): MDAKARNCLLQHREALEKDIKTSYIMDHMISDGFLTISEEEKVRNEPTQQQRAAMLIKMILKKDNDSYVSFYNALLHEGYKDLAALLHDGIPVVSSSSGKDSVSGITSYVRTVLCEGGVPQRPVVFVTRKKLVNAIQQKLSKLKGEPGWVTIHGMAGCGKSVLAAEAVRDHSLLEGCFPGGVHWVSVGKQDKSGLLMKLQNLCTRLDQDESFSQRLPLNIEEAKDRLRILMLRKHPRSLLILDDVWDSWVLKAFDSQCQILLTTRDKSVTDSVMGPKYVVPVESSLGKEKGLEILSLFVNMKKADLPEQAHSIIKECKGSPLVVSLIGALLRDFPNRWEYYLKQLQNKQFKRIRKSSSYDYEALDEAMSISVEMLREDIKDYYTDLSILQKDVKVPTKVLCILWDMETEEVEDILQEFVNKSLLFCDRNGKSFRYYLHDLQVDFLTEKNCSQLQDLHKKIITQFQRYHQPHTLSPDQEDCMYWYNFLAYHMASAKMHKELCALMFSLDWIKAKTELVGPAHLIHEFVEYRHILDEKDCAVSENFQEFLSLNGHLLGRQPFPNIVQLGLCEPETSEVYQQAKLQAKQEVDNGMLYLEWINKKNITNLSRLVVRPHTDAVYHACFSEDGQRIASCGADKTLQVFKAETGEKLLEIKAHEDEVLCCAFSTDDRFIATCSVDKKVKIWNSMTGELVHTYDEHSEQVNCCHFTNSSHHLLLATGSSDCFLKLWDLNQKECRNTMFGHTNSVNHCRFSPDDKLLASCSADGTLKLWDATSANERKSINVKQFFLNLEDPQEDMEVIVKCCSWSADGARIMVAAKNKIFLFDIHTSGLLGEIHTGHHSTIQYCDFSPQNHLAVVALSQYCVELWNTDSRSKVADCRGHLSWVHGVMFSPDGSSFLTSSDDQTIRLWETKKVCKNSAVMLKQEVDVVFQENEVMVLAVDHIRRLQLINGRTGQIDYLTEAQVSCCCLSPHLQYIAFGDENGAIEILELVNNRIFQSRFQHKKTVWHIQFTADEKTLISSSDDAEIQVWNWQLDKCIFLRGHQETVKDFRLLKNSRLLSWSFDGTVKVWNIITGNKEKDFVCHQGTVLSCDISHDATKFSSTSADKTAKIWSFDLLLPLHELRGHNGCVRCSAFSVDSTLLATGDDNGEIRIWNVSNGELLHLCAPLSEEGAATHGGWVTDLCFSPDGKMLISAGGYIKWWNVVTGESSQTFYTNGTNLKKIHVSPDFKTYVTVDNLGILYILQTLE

Cytochrome P450 2D6, sequence (P10635 whole entry): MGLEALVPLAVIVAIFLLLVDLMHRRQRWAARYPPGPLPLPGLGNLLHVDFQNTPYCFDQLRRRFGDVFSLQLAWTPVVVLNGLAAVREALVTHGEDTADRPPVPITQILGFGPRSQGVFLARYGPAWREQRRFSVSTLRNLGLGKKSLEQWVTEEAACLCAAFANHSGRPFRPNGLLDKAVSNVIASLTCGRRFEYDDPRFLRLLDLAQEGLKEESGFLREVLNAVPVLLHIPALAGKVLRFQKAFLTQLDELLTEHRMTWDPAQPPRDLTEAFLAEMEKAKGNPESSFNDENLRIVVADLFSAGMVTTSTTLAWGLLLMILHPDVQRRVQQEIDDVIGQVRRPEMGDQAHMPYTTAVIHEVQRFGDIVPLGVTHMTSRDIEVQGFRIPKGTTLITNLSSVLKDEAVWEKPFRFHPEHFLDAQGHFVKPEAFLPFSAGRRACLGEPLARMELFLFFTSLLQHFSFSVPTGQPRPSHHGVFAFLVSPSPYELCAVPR

Nc1ccc(S(=O)(=O)Nc2ccnn2-c2ccccc2)cc1 [SULFAPHENAZOLE]
AC50 (Cytochrome P450 2D6): inactive | AC50 (Cytochrome P450 1A2): inactive | AC50 (Cytochrome P450 2C19): inactive; also recorded: inconclusive

C[C@@H]1CN([C@@H](C)CO)C(=O)c2cccc(NC(=O)Nc3cccc4ccccc34)c2O[C@H]1CN(C)C(=O)Nc1ccc(C(F)(F)F)cc1
AC50 [1]: 40.7 µM (active)

Cc1cccnc1Nc1nc(-c2ccc(O)c(O)c2)cs1
IC50 [2]: > 100 µM (inactive) | CC50 [3]: 21.2 µM (active) | IC50 [4]: 9.5 µM (active) | IC50 [5]: > 100 µM (inactive) | EC50 [6]: 13.6 µM (active) | IC50 [7]: > 51.1 µM (active) | CC50 [8]: > 40 µM (active) | IC50 [9]: 8.95 µM (active) | AC50 [10]: > 20 µM (inactive) | IC50 [11]: 4.03 µM (active) | EC50 [12]: 13.3 µM (active)

C=CC1=C(C(=O)O)N2C(=O)[C@@H](NC(=O)/C(=N\OCC(=O)O)c3csc(N)n3)[C@H]2SC1 [CEFIXIME]
IC50 [13]: > 122 µM (inactive) | IC50 [14]: 1.21 µM (active) | IC50 [15]: 1.48 µM (active) | AC50 [16]: 17.9 µM (active) | IC50 [17]: > 66.6 µM (inactive) | EC50 [18]: 9.08 µM (active)
